The values below come from US10794898B2, “High-throughput, high-precision methods for detecting protein structural changes in living cells” (REGENTS OF THE UNIVERSITY OF MINNESOTA, priority 2014, dated 2020).

One data set deals with T1, 2-color SERCA2a (2CS) (Canis lupus familiaris, UniProt O46674, INS508[…]).
T1 construct: expressed in transfected cells
Put plainly: Live-cell 2-color SERCA (2CS) FRET assay in fluorescence lifetime plate reader. The class given is cell-based, canine. Conditions: for LOPAC library screen outcome (2CS GFP lifetime outside 3SD window): hit = lifetime change more than 3 SD from DMSO controls, repeated. The text has this: Using recombinant DNA technology, the gene for TagRFP was fused to the N-terminus of canine SERCA2a. This fusion position is in the A-domain of the pump. EGFP was fused as an intrasequence tag before residue 509 in the N-domain. The structural model presented in FIG. 1A corresponds to the isoform SERCA1a, which is 84% homologous to SERCA2a. Hou et al. evaluated several intrasequence fusion positions chosen using x-ray crystal structures of SERCA1a to identify unstructured loops and predict large relative distance changes without affecting SERCA function. (Hou et al., PLoS ONE 2012, 7, e40369). The 509 site was chosen because the labeled construct had normal SERCA activity and its intramolecular FRET signal was sensitive to SERCA structural state, as shown below.
(§1) The 96-well plate format LOPAC library was reformatted into four 384-well polystyrene mother plates (Corning, Corning, N.Y.) using a Biomek FX liquid handler (Beckman Coulter, Brea, Calif.), and diluted to 500 μM using DMSO. Column 1, 22, 23 and 24 were loaded with DMSO for in-plate no-compound controls. The LOPAC compounds were distributed in column 2 through 21. Each plate contains 64 wells of DMSO controls, and 320 wells of compounds from the LOPAC library. Black well, high-quality-glass bottom Greiner 384-well microplates (PN 781892) were selected as the assay plates for their optical clarity, low autofluorescence, and low inter-well cross-talks. Compounds (1 μL) were transferred from the mother plates into assay plates using a Mosquito HV liquid handler (TTP Labtech Ltd, UK). The plates were sealed and stored at −20° C. until use. On the day of screening, the plates were equilibrated to room temperature (25° C.). Stable GFP-SERCA2a (donor only control) or 2CS cells were lifted from a 225 cm^2 flask by incubating with TrypLE (Invitrogen) for 5 min. Cells were collected and pelleted for 5 min at 500 g and resuspended in 10 mL PBS, then analyzed on a Countess cell counter (Invitrogen) and diluted to 1×10^6 cells/mL. 49 μL Cells were plated on top of the compounds by a FlexDrop IV reagent dispenser (PerkinElmer, Waltham, Mass.). Assay plates were spun for 1 min at 200 g and allowed to incubate at RT for 20 min before reading on a fluorescence lifetime plate reader (constructed in collaboration with Fluorescence Innovations, Inc., Minneapolis, Minn.). GFP fluorescence was excited with a 473 nm microchip laser from Concepts Research Corporation (Belgium, Wis.) and emission was filtered with 490 nm long pass and 520/35 nm band pass filters from Semrock (Rochester, N.Y.).
Time-resolved fluorescence waveforms for each well were fitted to single-exponential decays using global analysis software. Each plate contained 64 control wells with only DMSO, and a hit was defined as a compound that changed the 2CS donor lifetime by more than three times the standard deviation (SD) relative to the controls. Fluorescent compounds that caused the intensity of both untransfected HEK cells and 2CS cells to be more than 3SD outside the mean of the 64 controls on a plate were excluded from the hits as likely false positives.

For a further data set, the target named is T2, SERCA (Sus scrofa, UniProt P11607).
T2 construct: Cardiac sarcoplasmic reticulum (SR) vesicles were prepared from the ventricular tissue of swine hearts; from tissue; host or cells: ventricular tissue of swine hearts (cardiac SR vesicles)
Put plainly: Enzyme-coupled, NADH-linked SERCA ATPase assay in pig cardiac SR. The format is biochemical. Further details: inhibition of ATPase activity: dose or concentration left out as unconfirmed. As to the method:
An enzyme-coupled, NADH-linked ATPase assay was used to measure SERCA ATPase activity (Stergiopoulos et al., BMC Health Serv Res 2012, 12, 345). in 96-well microplates. Each well contained 50 mM MOPS (pH 7.0), 100 mM KCl, 5 mM MgCl2, 1 mM EGTA, 0.2 mM NADH, 1 mM phosphoenol pyruvate, 10 IU/mL of pyruvate kinase, 10 IU/mL of lactate dehydrogenase, 3.5 μg/mL of the calcium ionophore A23187, and CaCl2 added to set free [Ca^2+] to the desired values. (Mueller et al., Biochemistry 2004, 43, 8754-8765). 2.5 μg of cardiac SR or 25 μg of HEK cell homogenate were used in each well to correct for the difference in SERCA content. The assay was started upon the addition of ATP at a final concentration of 5 mM and read in a SpectraMax Plus microplate spectrophotometer (Molecular Devices, Sunnyvale, Calif.), bring the total volume to 200 μL. Results were normalized to SERCA content determined from immunoblotting.
Effects of known activators and LOPAC hits on SERCA ATPase activity was evaluated in pig cardiac SR. Compounds were dissolved in DMSO, and adjusted to […] the concentrations used in the final assay wells. 4 μL prediluted compounds were added to each well to keep the final [DMSO] at 2% (v/v).

A further data set relates to Plasmodium falciparum. Conditions: cited from earlier work.
Data set [1] relates to Ca2+ uptake into microsomes. The following applies: cited from earlier work.
The next data set relates to GFP-SERCA2a. Put plainly: Donor-only control: GFP lifetime in GFP-SERCA2a cells. The format is cell-based, canine. As to the method:
as §1, with “Compounds (1 μL) were transferred from the mother plates into assay plates using a Mosquito HV liquid handler (TTP Labtech Ltd, UK). The plates were sealed and stored at −20° C. until use. On the day of screening, the plates were equilibrated to room temperature (25° C.). Stable GFP-SERCA2a (donor only control) or 2CS cells were lifted from a 225 cm^2 flask by incubating with TrypLE (Invitrogen) for 5 min.” left out, “49 μL Cells were plated on top of the compounds by a FlexDrop IV reagent dispenser (PerkinElmer, Waltham, Mass.).” left out
Time-resolved fluorescence waveforms for each well were fitted to single-exponential decays using global analysis software. […]

Read-outs that look alike come from different tables or passages of the source.

T2 sequence (P11607 1-997 isoform P11607-2): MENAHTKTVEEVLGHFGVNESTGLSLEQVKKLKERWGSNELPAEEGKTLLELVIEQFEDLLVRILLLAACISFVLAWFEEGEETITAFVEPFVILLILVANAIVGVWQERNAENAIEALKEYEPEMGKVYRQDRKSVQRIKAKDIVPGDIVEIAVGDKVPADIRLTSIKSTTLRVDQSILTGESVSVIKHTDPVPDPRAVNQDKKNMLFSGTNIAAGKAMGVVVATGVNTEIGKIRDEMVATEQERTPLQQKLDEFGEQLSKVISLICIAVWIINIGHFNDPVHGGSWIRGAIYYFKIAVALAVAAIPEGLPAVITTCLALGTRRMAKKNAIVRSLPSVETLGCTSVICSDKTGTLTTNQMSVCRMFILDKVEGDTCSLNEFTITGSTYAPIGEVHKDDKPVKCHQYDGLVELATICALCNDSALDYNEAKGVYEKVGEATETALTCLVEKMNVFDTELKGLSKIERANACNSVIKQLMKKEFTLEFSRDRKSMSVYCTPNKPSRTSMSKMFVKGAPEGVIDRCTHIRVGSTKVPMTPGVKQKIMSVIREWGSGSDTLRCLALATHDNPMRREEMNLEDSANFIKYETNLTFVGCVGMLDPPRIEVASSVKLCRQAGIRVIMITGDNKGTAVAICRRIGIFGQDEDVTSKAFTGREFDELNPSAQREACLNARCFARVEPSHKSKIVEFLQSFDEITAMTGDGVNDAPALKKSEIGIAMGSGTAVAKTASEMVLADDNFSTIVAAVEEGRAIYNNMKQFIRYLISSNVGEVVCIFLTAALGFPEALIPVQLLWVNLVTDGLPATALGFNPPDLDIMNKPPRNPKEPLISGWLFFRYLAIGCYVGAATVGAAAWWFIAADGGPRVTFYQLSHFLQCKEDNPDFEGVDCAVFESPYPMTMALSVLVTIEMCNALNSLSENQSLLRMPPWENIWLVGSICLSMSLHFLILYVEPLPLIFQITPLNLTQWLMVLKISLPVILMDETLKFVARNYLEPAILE

Take `[Cl-].c1ccc2c(c1)[I+]c1ccccc1-2` [DPI, diphenyline iodonium chloride]: on 2-color SERCA2a (2CS) (basal FRET 0.12), the “FRET efficiency at maximal effect” value is 0.10. Besides, the “LOPAC library screen outcome (2CS GFP lifetime outside 3SD window)” value (“LOPAC library screen outcome” below) at 2-color SERCA2a (2CS) is “reproducible hits”. Moreover, on 2-color SERCA2a (2CS) (maximal effect in dose-response), the “maximal reduction of FRET” value is approximately 18%. In addition, at SERCA, the “inhibition of ATPase activity” value is recorded as less than 50%. Further, at SERCA (below 10 μM), the “functional (ATPase) inhibition” value was “very little functional inhibition”. For the same compound, in the data set with Plasmodium falciparum, the “IC50 for inhibition of parasite growth” value is “submicromolar”. The results for the “inhibition of Ca2+ uptake into microsomes” value in data set [1] (30 µM) and in data set [1] (100 µM) were 18% and 32%, respectively.

With `Cc1ccc2cccc(NC(=O)c3ccc(OC(C)C)cc3)c2n1` [CDN1163], the “effect on FRET between GFP and RFP in 2CS” value at 2-color SERCA2a (2CS) (dose-response, live cells) was “reduce FRET”. On SERCA, the “mode of SERCA activation” value is “increasing the activity at saturating [Ca^2+]”.

In general, Kd refers to the free concentration of one partner at which half of the binding sites on the other are occupied at equilibrium, for simple one-to-one binding. On to `CC(=O)C1=C(O)[C@@H]2[C@H]3c4c[nH]c5cccc(c45)C[C@H]3C(C)(C)N2C1=O` [CPA, cyclopiazonic acid], for which the Kd on SERCA was approximately 40 nM.

In the case of `COc1cc(/C=C(\C#N)C(=O)Nc2nnc(C(F)(F)F)s2)ccc1OCc1ccc(C(F)(F)F)cc1C(F)(F)F` [XCT 790], the “reduction of FRET” value on 2-color SERCA2a (2CS) (dose-response assay, concentration not given) is approximately 42%. On 2-color SERCA2a (2CS), the “LOPAC library screen outcome” value is given as “reproducible hits”. Moreover, on SERCA, the “effect on ATPase activity at the highest concentrations tested” value is on record as “completely inhibit ATPase activity”. For the same compound, in the data set with GFP-SERCA2a, the “effect on the lifetime of GFP-SERCA2a alone” value is “no effect”.

For `C/C=C(/C)C(=O)O[C@H]1C(C)=C2[C@H]([C@@H]1OC(=O)CCCCCCC)[C@@](C)(OC(C)=O)C[C@H](OC(=O)CCC)[C@@]1(O)[C@H]2OC(=O)[C@@]1(C)O` [TG, thapsigargin], the “reduction of FRET” value at 2-color SERCA2a (2CS) (at 7.5 nM) was approximately 33%. The “LOPAC library screen outcome” value on 2-color SERCA2a (2CS) is “reproducible hits”. For the same compound, at SERCA (at 7.5 nM), the ATPase activity entry is on record as “nearly ablated”. In addition, the “effect on ATPase activity at the highest concentrations tested” value on SERCA is given as “completely inhibit ATPase activity”.
